Test results reported in ChEMBL document CHEMBL3286136, “Discovery of camphor-derived pyrazolones as 11β-hydroxysteroid dehydrogenase type 1 inhibitors” (Bioorg Med Chem Lett, 2014).
≈ marks a conversion by molar mass, not a printed value.

Tests used:
[1] = target: 11-beta-hydroxysteroid dehydrogenase 1 (Rattus norvegicus, UniProt P16232); experiment: Inhibition of rat 11betaHSD1 assessed as reduction of cortisone to cortisol by ELISA
[2] = Cmax in rat at 50 mg/kg, po; assay type: ADME, organism-based; parameters: dose 50 mg/kg, route oral; conditions: in vivo
[3] = Kinetic aqueous solubility of the compound at pH 6.5; assay type: physicochemical; conditions: read-out: Kinetic_solubility
[4] = Clearance in iv dosed rat; assay type: ADME, organism-based; conditions: in vivo
[5] = Effective permeability of the compound at pH 6.5 by PAMPA; assay type: physicochemical; conditions: read-out: Peff
[6] = Clearance in human liver microsomes at 1 uM; assay type: ADME; conditions: read-out: CLH
[7] = Oral bioavailability in rat; assay type: ADME, organism-based; conditions: in vivo
[8] = Volume of distribution at steady state in iv dosed rat; assay type: ADME, organism-based; conditions: in vivo, read-out: Vdss
[9] = Tmax in po dosed rat; assay type: ADME, organism-based; conditions: in vivo
[10] = Half life in iv dosed rat; assay type: ADME, organism-based; conditions: in vivo
[11] = tested on: Mus musculus; experiment: Toxicity in db/db mouse assessed as sedative effect at 150 mg/kg, po after 13 days; assay type: organism-based; parameters: dose 150 mg/kg, route oral; conditions: in vivo, 312 h
[12] = target: hERG (KCNH2) (Homo sapiens, UniProt Q12809); experiment: Inhibition of human ERG
[13] = tested on: Mus musculus; experiment: Reduction in plasma cortisol level in db/db mouse at 150 mg/kg, po after 30 mins […] measured after 5.5 hrs relative to control; assay type: functional
[14] = target: Cytochrome P450 3A4 (Homo sapiens, UniProt P08684); experiment: Inhibition of CYP3A4 (unknown origin); assay type: ADME
[15] = Cmax in rat at 20 mg/kg, po; assay type: ADME, organism-based; parameters: dose 20 mg/kg, route oral; conditions: in vivo
[16] = target: 11-beta-hydroxysteroid dehydrogenase 1 (Homo sapiens, UniProt P28845); experiment: Inhibition of full-length human 11betaHSD1 expressed in HEK293 cells assessed as cortisol level by competitive ELISA; assay type: cell-based
Chain of 11-beta-hydroxysteroid dehydrogenase 1 (Homo sapiens, UniProt P28845) (P28845 whole entry): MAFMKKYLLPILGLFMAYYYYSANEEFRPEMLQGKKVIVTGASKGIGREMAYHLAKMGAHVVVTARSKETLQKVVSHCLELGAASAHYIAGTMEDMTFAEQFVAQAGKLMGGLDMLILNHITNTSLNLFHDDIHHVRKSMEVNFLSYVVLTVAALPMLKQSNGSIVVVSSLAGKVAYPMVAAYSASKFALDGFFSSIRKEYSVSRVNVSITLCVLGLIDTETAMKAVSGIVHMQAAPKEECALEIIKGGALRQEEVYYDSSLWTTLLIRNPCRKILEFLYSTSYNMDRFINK

Chain of Cytochrome P450 3A4 (P08684 whole entry): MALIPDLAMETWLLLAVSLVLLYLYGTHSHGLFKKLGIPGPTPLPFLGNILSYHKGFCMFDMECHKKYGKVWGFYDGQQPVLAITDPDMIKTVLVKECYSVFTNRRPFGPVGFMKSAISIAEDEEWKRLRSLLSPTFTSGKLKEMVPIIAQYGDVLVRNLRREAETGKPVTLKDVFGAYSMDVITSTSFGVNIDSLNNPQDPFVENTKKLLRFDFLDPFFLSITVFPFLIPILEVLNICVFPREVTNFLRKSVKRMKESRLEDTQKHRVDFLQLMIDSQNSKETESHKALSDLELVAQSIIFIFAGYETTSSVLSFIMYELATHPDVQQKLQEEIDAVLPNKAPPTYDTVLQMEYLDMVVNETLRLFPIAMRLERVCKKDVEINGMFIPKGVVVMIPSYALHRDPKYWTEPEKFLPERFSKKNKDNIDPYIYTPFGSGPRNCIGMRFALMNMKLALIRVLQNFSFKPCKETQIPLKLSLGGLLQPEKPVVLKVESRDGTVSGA
Chain of 11-beta-hydroxysteroid dehydrogenase 1 (Rattus norvegicus, UniProt P16232) (P16232 whole entry): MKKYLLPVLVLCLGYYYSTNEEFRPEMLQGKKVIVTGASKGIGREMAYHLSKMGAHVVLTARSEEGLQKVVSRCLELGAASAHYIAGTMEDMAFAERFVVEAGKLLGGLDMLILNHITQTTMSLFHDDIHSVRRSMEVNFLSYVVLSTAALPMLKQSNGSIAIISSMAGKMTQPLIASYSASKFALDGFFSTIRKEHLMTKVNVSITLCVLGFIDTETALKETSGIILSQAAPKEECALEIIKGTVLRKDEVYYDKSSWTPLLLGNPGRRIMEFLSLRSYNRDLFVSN
Chain of hERG (KCNH2) (Q12809 whole entry): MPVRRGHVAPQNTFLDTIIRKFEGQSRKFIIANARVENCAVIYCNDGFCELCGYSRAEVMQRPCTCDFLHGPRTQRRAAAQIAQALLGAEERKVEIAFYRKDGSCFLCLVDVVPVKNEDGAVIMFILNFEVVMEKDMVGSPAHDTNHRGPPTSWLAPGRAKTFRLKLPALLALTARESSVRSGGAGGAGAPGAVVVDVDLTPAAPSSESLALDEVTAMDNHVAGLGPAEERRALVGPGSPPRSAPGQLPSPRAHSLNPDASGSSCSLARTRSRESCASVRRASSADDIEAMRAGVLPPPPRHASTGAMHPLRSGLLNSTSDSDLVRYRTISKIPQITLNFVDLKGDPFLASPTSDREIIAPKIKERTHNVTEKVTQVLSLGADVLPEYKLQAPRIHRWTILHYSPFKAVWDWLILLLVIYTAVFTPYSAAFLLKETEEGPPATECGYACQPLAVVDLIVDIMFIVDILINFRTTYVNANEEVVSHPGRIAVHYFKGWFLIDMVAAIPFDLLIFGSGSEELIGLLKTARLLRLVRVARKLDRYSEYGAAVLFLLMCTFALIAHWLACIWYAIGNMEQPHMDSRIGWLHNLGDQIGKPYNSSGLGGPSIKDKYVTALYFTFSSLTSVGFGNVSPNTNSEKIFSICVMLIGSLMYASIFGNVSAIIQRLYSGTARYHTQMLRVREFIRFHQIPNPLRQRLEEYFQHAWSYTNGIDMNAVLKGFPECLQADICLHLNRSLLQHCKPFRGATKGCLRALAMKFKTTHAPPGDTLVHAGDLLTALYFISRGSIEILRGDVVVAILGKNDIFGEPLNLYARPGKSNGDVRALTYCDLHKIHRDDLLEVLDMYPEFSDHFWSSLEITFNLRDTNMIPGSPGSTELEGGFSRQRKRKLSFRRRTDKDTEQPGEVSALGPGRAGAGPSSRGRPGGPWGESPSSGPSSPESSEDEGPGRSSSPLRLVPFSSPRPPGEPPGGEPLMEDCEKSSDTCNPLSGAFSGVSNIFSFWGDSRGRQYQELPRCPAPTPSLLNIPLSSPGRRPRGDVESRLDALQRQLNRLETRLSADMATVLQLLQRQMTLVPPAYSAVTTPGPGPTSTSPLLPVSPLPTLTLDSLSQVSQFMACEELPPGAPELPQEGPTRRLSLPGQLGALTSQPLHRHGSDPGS

Row | Structure (SMILES) | IC50 [1] [nM] | solubility kinetic [3] [µg/mL] | clearance [4] [mL/min/kg] | Papp [5] [×10⁻⁶ cm/s] | microsomal CLint at 1 µM [6] [µL/min/mg] | bioavailability [7] [%] | Vd [8] [L/kg] | Tmax [9] [h] | half-life [10] [h] | further results
1 | CC1(C)[C@@H]2CC[C@@]1(C)c1c2c(=O)n(-c2ccc(F)cc2F)n1CCc1ccccc1 | 18 |  |  |  |  |  |  |  |  | 
2 | CC(C)n1c2c(c(=O)n1-c1ccccc1F)[C@H]1CC[C@]2(C)C1(C)C | 22 |  |  |  |  |  |  |  |  | 
3 | Cn1c2c(c(=O)n1-c1cc(Cl)ccc1Cl)[C@H]1CC[C@]2(C)C1(C)C | 5 | 50 (≈ 142 µM) | 40.2 | 6.7 | 170 | 71 | 4.6 | 0.5 | 5.4 | Activity [11]: Non-toxic; Cmax [2]: 280 ng/mL; IC20 [12]: 51000 nM; inhibition (INH) [13]: 93%; IC50 [14]: > 25000 nM
4 | CCCn1c2c(c(=O)n1-c1ccccc1F)[C@H]1CC[C@]2(C)C1(C)C | 110 |  |  |  |  |  |  |  |  | 
5 | CC1(C)[C@@H]2CC[C@@]1(C)c1c2c(=O)n(-c2ccccc2F)n1Cc1ccccc1 | 12 |  |  |  |  |  |  |  |  | 
6 | CC1(C)[C@@H]2CC[C@@]1(C)c1c2c(=O)n(-c2ccc(F)cc2F)n1Cc1ccccc1 | 13 | 82 (≈ 208 µM) | 29 | 11.2 | 582 | 35 | 1 | 2.3 | 0.8 | Cmax [2]: 2280 ng/mL; IC20 [12]: > 30000 nM; inhibition (INH) [13]: 93%; IC50 [14]: 6100 nM
7 | COc1c2c(nn1-c1ccc(C)cc1)[C@]1(C)CC[C@H]2C1(C)C | > 11000 |  |  |  |  |  |  |  |  | IC50 [16]: > 22000 nM
8 | C=CCn1c2c(c(=O)n1-c1ccccc1F)[C@H]1CC[C@]2(C)C1(C)C | 35 |  |  |  |  |  |  |  |  | 
9 | Cn1c2c(c(=O)n1Cc1ccccc1C(F)(F)F)[C@H]1CC[C@]2(C)C1(C)C | 10 | 246 (≈ 675 µM) | 34.8 | 8.2 | 604 | 5 | 2 | 0.8 | 3 | Cmax [2]: 294 ng/mL; IC50 [14]: 4800 nM
10 | Cn1c2c(c(=O)n1-c1c(Cl)cccc1Cl)[C@H]1CC[C@]2(C)C1(C)C | > 11000 |  |  |  |  |  |  |  |  | IC50 [16]: > 22000 nM
11 | Cc1ccccc1-c1cccc(Cn2c(=O)c3c(n2C)[C@]2(C)CC[C@H]3C2(C)C)c1 | 21 |  |  |  |  |  |  |  |  | 

More lines, main results first:

Row | IC50 [1] [nM] | solubility kinetic [3] [µg/mL] | clearance [4] [mL/min/kg] | Papp [5] [×10⁻⁶ cm/s] | microsomal CLint at 1 µM [6] [µL/min/mg] | bioavailability [7] [%] | Vd [8] [L/kg] | Tmax [9] [h] | half-life [10] [h] | Structure (SMILES) | further results
12 | 4 |  |  |  |  |  |  |  |  | Cn1c2c(c(=O)n1-c1cccc(I)c1)[C@H]1CC[C@]2(C)C1(C)C | 
13 | 18 |  |  |  |  |  |  |  |  | CCn1c2c(c(=O)n1-c1ccccc1)[C@H]1CC[C@]2(C)C1(C)C | 
14 | 16 | 171 (≈ 477 µM) | 57.5 | 8.8 | 645 | 29 | 2.3 | 3.2 | 0.9 | CC1(C)[C@@H]2CC[C@@]1(C)c1c2c(=O)n(-c2ccccc2)n1Cc1ccccc1 | Cmax [2]: 648 ng/mL
15 | 10 | > 376 | 31.8 | 10.9 | 68 | 109 | 1.2 | 0.7 | 1 | Cn1c2c(c(=O)n1-c1ccccc1C(F)(F)F)[C@H]1CC[C@]2(C)C1(C)C | Activity [11]: Toxic; IC20 [12]: > 30000 nM; Cmax [15]: 2150 ng/mL; inhibition (INH) [13]: 93%; IC50 [14]: 22600 nM
16 | > 5000 |  |  |  |  |  |  |  |  | Cn1c2c(c(=O)n1-c1ccccn1)[C@H]1CC[C@]2(C)C1(C)C | 
17 | 39 | > 625 | 29.3 | 9.9 | 197 | 29 | 2.7 | 1 | 4.9 | Cn1c2c(c(=O)n1-c1ccccc1Cl)[C@H]1CC[C@]2(C)C1(C)C | Cmax [2]: 2840 ng/mL; IC20 [12]: > 30000 nM; IC50 [14]: > 50000 nM
18 | 116 |  |  |  |  |  |  |  |  | Cn1c2c(c(=O)n1-c1ccccc1)[C@@H]1CC[C@@]2(C)C1(C)C | 
19 | 41 |  |  |  |  |  |  |  |  | COc1cccc(-n2c(=O)c3c(n2C)[C@]2(C)CC[C@H]3C2(C)C)c1 | 
20 | 138 | 169 (≈ 598 µM) | 25.7 | 9.7 | 3.6 | 9 | 1.4 | 0.5 | 1.2 | Cn1c2c(c(=O)n1-c1ccccc1)[C@H]1CC[C@]2(C)C1(C)C | Cmax [15]: 335 ng/mL; IC50 [14]: > 50000 nM
21 | 77 |  |  |  |  |  |  |  |  | Cn1c2c(c(=O)n1Cc1ccccc1)[C@H]1CC[C@]2(C)C1(C)C | 
